This assay concerns the target human GlyT-2 glycine transporter (clone pHGT2, SEQ ID 20 nucleic acid / SEQ ID 21 protein) (Homo sapiens, UniProt Q9Y345, I279N/I611V). The experiment in a line: cell-based.

Sequence of human GlyT-2 glycine transporter (clone pHGT2, SEQ ID 20 nucleic acid / SEQ ID 21 protein) (Q9Y345 whole entry I279N/I611V): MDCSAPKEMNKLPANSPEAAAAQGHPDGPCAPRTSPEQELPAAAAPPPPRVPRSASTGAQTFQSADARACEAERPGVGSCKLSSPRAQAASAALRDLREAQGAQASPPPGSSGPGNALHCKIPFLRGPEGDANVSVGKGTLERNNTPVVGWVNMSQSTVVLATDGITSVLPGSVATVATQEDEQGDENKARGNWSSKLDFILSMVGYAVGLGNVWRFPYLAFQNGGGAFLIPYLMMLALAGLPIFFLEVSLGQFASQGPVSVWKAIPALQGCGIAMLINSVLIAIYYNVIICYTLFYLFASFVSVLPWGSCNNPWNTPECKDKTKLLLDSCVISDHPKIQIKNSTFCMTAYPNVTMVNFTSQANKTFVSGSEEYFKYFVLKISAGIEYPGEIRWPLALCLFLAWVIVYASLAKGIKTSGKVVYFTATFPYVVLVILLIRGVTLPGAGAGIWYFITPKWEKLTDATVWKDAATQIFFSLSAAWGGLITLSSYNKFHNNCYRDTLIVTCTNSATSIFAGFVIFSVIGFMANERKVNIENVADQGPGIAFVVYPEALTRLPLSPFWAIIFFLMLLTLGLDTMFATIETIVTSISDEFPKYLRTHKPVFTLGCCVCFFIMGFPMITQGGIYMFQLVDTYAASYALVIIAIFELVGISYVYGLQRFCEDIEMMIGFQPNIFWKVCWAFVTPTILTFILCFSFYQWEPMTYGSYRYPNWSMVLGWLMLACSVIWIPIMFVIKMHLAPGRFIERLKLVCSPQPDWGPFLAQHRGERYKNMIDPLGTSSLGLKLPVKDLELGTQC
Procedure: Transient GlyT-transfected cells or control cells grown in accordance with Example 5 were washed three times with HEPES buffered saline (HBS). The control cells were treated precisely as the GlyT-transfected cells except that the transfection procedure omitted any cDNA. […] The cells were then incubated another 20 minutes at 37° C., after which the cells were washed three times with ice-cold HBS. Scintillant was added to the cells, the cells were shaken for 30 minutes, and the radioactivity in the cells was counted using a scintillation counter. Data were compared between the cells contacted or not contacted by a prospective agent, and, where relevant, between cells having GlyT-1 activity versus cells having GlyT-2 activity, depending on the assay being conducted.
Data points represent means±SEM from an experiment performed in quadruplicate.

The term IC50 denotes the midpoint of a concentration-inhibition curve. A lower IC50 goes with higher potency. `NCC(=O)O` [glycine] yielded an IC50 of 40 µM. This lies in the double-digit micromolar range.

Source of the values: patent US5919653A, “Nucleic acids encoding a human glycine transporter” (Allelix Neuroscience Inc., priority 1996, dated 1999).
